The target of the first test is T1, Y4 receptor (Homo sapiens, UniProt P50391).
T1 sequence (P50391 whole entry): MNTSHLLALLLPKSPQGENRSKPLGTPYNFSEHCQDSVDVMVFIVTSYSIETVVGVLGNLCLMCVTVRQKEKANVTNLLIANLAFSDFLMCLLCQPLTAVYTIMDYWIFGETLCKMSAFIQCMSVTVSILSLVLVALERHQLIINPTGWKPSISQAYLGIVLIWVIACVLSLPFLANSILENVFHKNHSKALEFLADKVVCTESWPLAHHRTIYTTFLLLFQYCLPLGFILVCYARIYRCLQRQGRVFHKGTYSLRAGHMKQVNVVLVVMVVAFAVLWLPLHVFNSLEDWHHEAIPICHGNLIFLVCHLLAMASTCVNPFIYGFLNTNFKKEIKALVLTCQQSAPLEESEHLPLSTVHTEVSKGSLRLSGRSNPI
Assay: not given
The conditions noted are these: background statement; cited from earlier work.
Regarding “PYY: naturally secreted 36 amino acid, C-terminally amidated PP-fold peptide”, the “affinity for Y4 receptor” value is on record as “nanomolar affinity”.

The target of the next test is T1, Y4 receptor. The experiment in a line: NPY4 cAMP HTRF Agonist Assay. The format is cell-based. On the set-up: expressed in transfected cells. The conditions noted are these: human Y4 stable CHO clonal cells; inhibitory cAMP assay with Forskolin and IBMX, 30 minutes at room temperature. On the procedure: NPY4 cAMP HTRF Agonist Assay
The functionality of the compound at Y4 receptor was analyzed using an inhibitory cAMP assay (CISBIO, HTRF cAMP kit #62AM4PEC) to measure the Gi activation by Y4 agonism.
The human Y4 stable CHO clonal cells were maintained in culture medium (F-12 containing 10% Fetal Bovine Serum, […] GENETICIN®, […] Zeocin). Before the experiment, 5 μL of 1 uM Forskolin (Sigma, # F6886) and 100 uM IBMX (Sigma, #15879) in PBS buffer were added into 384-well plates (PE, Proxi-plate) that were pre-dotted with […] compounds. The cells were removed from the flasks by Cellstripper, counted and adjusted to 1.0×10^6 cells/mL in PBS buffer, and added 5 μL/well (5000 cells/well) into the above 384-well plates. The cells were then covered and incubated for 30 minutes at room temperature. After incubation, 5 μL/well of D2-conjugate in HTRF lysis buffer was first added, followed by adding 5 μL/well of anti-cAMP Cryptate in HTRF lysis buffer. The plates were incubated for another 1 hour at room temperature and read on the EnVision Multilabel Plate Reader.
Molecule `N#Cc1cc(N2CCC[C@H](N[C@@H]3CCCC[C@H]3NC(=O)Nc3ccccc3)C2)ccn1` [Example 45, 1-((1R,2R)-2-((S)-1-(2-Cyanopyridin-4-yl)piperidin-3-ylamino)cyclohexyl)-3-phenylurea] had an EC50 of 1.46 µM.
Still for that read-out and setting: under `O=C(Nc1cc(C(F)(F)F)cc(C(F)(F)F)c1)N[C@@H]1CCCC[C@H]1N[C@H]1CCCN(c2ccc(C(F)(F)F)cc2)C1` [Example 89] stands 2.34 µM; under `N#Cc1ccc(N2CCC[C@H](N[C@@H]3CCCC[C@H]3NC(=O)Nc3ccc(C(F)(F)F)cc3)C2)cc1` [Example 56, 1-((1R,2R)-2-((S)-1-(4-Cyanophenyl)piperidin-3-ylamino)cyclohexyl)-3-(4-(trifluoromethyl)phenyl)urea], 3.62 µM.
On the same count and under the same terms, with `O=C(Nc1ccccc1)N[C@@H]1CCCC[C@H]1N[C@H]1CCCN(c2ccc([N+](=O)[O-])cc2)CC1` [Example 52, 1-((1R,2R)-2-((S)-1-(4-Nitrophenyl)azepan-4-ylamino)cyclohexyl)-3-phenylurea] the figure was 2.89 µM; with `N#Cc1ccc(N2CCC[C@H](N[C@@H]3CCCC[C@H]3NC(=O)OCc3ccc(OC(F)(F)F)cc3)C2)cc1` [Example 16, 4-(Trifluoromethoxy)benzyl (1R,2R)-2-((S)-1-(4-cyanophenyl)piperidin-3-ylamino)cyclohexylcarbamate], 0.072 µM; with `C[C@]1(N[C@@H]2CCCC[C@H]2NC(=O)OCc2ccccc2)CCCN(c2ccc([N+](=O)[O-])cc2)C1` [Example 58, Benzyl (1R,2R)-2-((S)-3-methyl-1-(4-nitrophenyl)piperidin-3-ylamino)cyclohexylcarbamate], 0.01 µM.
The same measure, in the same setting: under `Cn1cc(CC(=O)N[C@@H]2CCCC[C@H]2N[C@H]2CCCN(c3ccc(C#N)cc3)C2)c2ccccc21` [Example 10, N-((1R,2R)-2-((S)-1-(4-Cyanophenyl)piperidin-3-ylamino)cyclohexyl)-2-(1-methyl-1H-indol-3-yl)acetamide] stands 0.33 µM.
`O=C(Nc1ccccc1)N[C@@H]1CCCC[C@H]1N[C@H]1CCCN(c2ccc([N+](=O)[O-])cc2)C1` [Example 1, 1-((1R,2R)-2-((S)-1-(4-Nitrophenyl)piperidin-3-ylamino)cyclohexyl)-3-phenyl urea] yielded a concentration for a half-maximal effect (EC50) of 0.081 µM.
On the same count and under the same terms, under `O=C(Nc1ccc(OC(F)(F)F)cc1)N[C@@H]1CCCC[C@H]1N[C@H]1CCCN(c2ccc([N+](=O)[O-])cc2)C1` [Example 3, 1-((1R,2R)-2-((S)-1-(4-Nitrophenyl)piperidin-3-ylamino)cyclohexyl)-3-(4-(trifluoromethoxy)phenyl)urea] stands 0.046 µM; under `O=C(Nc1ccc(OC(F)(F)F)cc1)N[C@@H]1CCCC[C@H]1N[C@H]1C[C@@H]2C[C@H]1N(c1ccc([N+](=O)[O-])cc1)C2` [Example 4, 1-((1R,2R)-2-((1R,4R,6S)-2-(4-Nitrophenyl)-2-azabicyclo[2.2.1]heptan-6-ylamino)cyclohexyl)-3-(4-(trifluoromethoxy)phenyl)urea], 0.025 µM.
Same read-out and setting: with `Cc1nnc(-c2ccc(N3CCC[C@H](N[C@@H]4CCCC[C@H]4NC(=O)OCc4ccccc4)C3)cc2)o1` [Example 7, Benzyl (1R,2R)-2-((S)-1-(4-(5-methyl-1,3,4-oxadiazol-2-yl)phenyl)piperidin-3-ylamino)cyclohexylcarbamate] the figure was 0.072 µM; with `Cc1ccc(COC(=O)N[C@@H]2CCCC[C@H]2N[C@H]2CCCN(c3ccc(C(F)(F)F)cc3)C2)cc1` [Example 63], 0.515 µM.
Still for that read-out and setting: under `O=C(N[C@@H]1CCCC[C@H]1N[C@H]1CCCN(c2ccc(-c3nc4ccccc4o3)cc2)C1)OCc1ccccc1` [Example 43, Benzyl (1R,2R)-2-((S)-1-(4-(benzo[d]oxazol-2-yl)phenyl)piperidin-3-ylamino)cyclohexylcarbamate] stands 1.4 µM; under `N#Cc1ccc(N2CCC[C@H](N[C@@H]3CCCC[C@H]3NC(=O)Nc3cccc(O)c3)C2)cc1` [Example 36, 1-((1R,2R)-2-((S)-1-(4-Cyanophenyl)piperidin-3-ylamino)cyclohexyl)-3-(3-hydroxyphenyl)urea], 0.61 µM.
The molecule `CCOC(=O)c1ccc(N2CC[C@H](N[C@@H]3CCCC[C@H]3NC(=O)OCc3ccccc3)C2)cc1` [Example 32, Ethyl 4-((S)-3-((1R,2R)-2-(benzyloxycarbonylamino)cyclohexylamino)pyrrolidin-1-yl)benzoate] came in with an EC50 of 0.54 µM.
Same read-out and setting: with `COc1ccc(COC(=O)N[C@@H]2CCCC[C@H]2N[C@H]2CCCN(c3ccc(C#N)cc3)C2)cc1` [Example 34, 4-Methoxybenzyl (1R,2R)-2-((S)-1-(4-cyanophenyl)piperidin-3-ylamino)cyclohexylcarbamate] the figure was 0.575 µM.

Source of the values: US8710049B2, “Diaminocyclohexane compounds and uses thereof” (Bristol-Myers Squibb Company, priority 2011, dated 2014).
